Data from a melting point compilation (Tetko et al.; mined from patent text by program, amines drawn as free bases though some values may be those of a salt).

Molecule `COC(=O)C(C)Oc1ccc(Oc2ccc(Cl)cc2F)cc1` (configuration not stated) has a melting point of 55 to 57 °C. With `OC(CCc1cccnc1)COc1ccc(OCc2ccccc2)cc1` (configuration not stated) the melting point was 79 to 82 °C. `CC1=C(Cc2ccc(C(C)C)cc2)C(=O)C2C=CC=CC2C1=O` (configuration not stated) showed a melting point of 64 to 65 °C. `C=C(CC)c1cn(-c2c(Cl)cc(C(F)(F)F)cc2Cl)nc1C#N` gave a melting point of 104 to 105 °C. Work on `Nc1ccc(Cl)nc1I` yielded a melting point of 148 °C. Work on `Nc1nc2ccccc2c2c1ncn2CCNC(=O)CCCCC1SCC2NC(=O)NC21` (configuration not stated) yielded a melting point of 169 °C. With `COC(=O)NNc1cc(C)c(Cl)c2c1OC(C)C2` (configuration not stated) the melting point was 157 to 160 °C. `O=C1CCCN1CCCn1c(=O)[nH]c2ncc(-c3ccc(O)cc3)nc21` gave a melting point of 305 to 306 °C. For `CNCCSC1=Cc2ccccc2Sc2ccc(O)cc21`, the melting point was 147 to 149 °C. For `S=C(NCCC1=CCCCC1)Nc1ccccn1`, the melting point was 153 to 155 °C. In the case of `CNC(=S)NCCCSCc1c[nH]cn1`, the melting point is reported as 118 to 120 °C. For `CCOC(=O)c1cn2c3c(c(F)c(F)cc3c1=O)CCC2CCl` (configuration not stated), the melting point was 215 to 218 °C. `Cc1cn2ccc(NC(=O)C(F)(F)F)c(I)c2n1` showed a melting point of 168 °C. Molecule `Cc1ccc(Cn2[nH]c(N)cc2=O)cc1` has a melting point of 149 °C. Work on `CC[Si](C#Cc1ccc2nc(-c3ncc[nH]3)nc(NCCOC)c2c1)(CC)CC` yielded a melting point of 158 to 160 °C. `O=C1C(=O)c2ccccc2C2=C1SCC1(CCN(C3CCCC3O)CC1)O2` (configuration not stated) gave a melting point of 110 to 113 °C. Molecule `Oc1ccc2c(-c3ccc4c(O)cccc4c3)noc2c1` has a melting point of 275 to 277 °C. Molecule `COc1cc2c(cc1OC)CC(=O)N(CC1CCCNC1)CC2` (configuration not stated) has a melting point of 152 to 156 °C. `N#Cc1cc([N+](=O)[O-])ccc1Oc1ccc(Cl)cc1Cl` gave a melting point of 154 °C. `Cc1cccc2c(=O)[nH]c(CCN3CCCC(O)C3)cc12` (configuration not stated) gave a melting point of 180 to 181 °C. `O=c1oc2ccccc2c(O)c1[N+](=O)[O-]` showed a melting point of 174 °C. In the case of `CSc1ccc(-c2nc(SC)ccc2-c2ccc(S(C)(=O)=O)cc2)cc1`, the melting point is reported as 175 °C. Work on `CC(C)C[C@H](NC(C)C)C(=O)O` yielded a melting point of 293 to 296 °C. Work on `C#CCn1c(CC)nc2c(N)nc3ccccc3c21` yielded a melting point of 182 to 184 °C. Work on `O=C(NN1CCOCC1)OCCOc1ccc(OCCOC(=O)NN2CCOCC2)cc1` yielded a melting point of 219 to 221 °C. Molecule `COC(=O)CN(CC(=O)OC)c1cc(OCCCCCCCCCCCCOc2ccccc2)cc(OCCCOc2ccc(S(C)=O)cc2)c1` (configuration not stated) has a melting point of 47 to 49 °C. `CC(=O)Nc1ccc(C(F)(F)F)cc1-c1ccc(OC(C)C(O)CCc2cccnc2)cc1` (configuration not stated) showed a melting point of 44 to 47 °C. In the case of `COc1cc(OC)c(-c2cccs2)cc1C=CC(=O)c1ccc(S(=O)(=O)Nc2nnn[nH]2)cc1`, the melting point is reported as 185 to 186 °C. Work on `CC[C@H](O)CC(=O)N[C@H]1CC[C@H](CCN2CCN(c3nccc4c3CCO4)CC2)CC1` yielded a melting point of 158 °C. For `Cc1ccc(O)c(C)c1[N+](=O)[O-]`, the melting point was 99 to 101 °C. With `Nc1ccc2c(c1-c1n[nH]cc1Cl)OC(F)(F)O2` the melting point was 195 °C. `CNC1=NS(=O)(=O)N=C1NCCSCc1csc(N)n1` showed a melting point of 200 to 201 °C. With `CCCCCCC1([N+](=O)[O-])C=CC(C(=O)O)=CC1` (configuration not stated) the melting point was 106 to 108 °C. In the case of `COC(=O)c1sc(Cl)c(Cl)c1O`, the melting point is reported as 107 to 108 °C. For `C/C(=C\COC(=O)c1ccccc1)CCc1c(C)c(O)c(C)c(C)c1O`, the melting point was 112 to 114 °C. `COCc1nc(C(C)(C)O)c(C(=O)OC)[nH]1` gave a melting point of 94.5 to 96 °C. With `N#Cc1cc(Br)c(O)c(Cc2cc(F)cc(Cc3cc(C#N)cc(Br)c3O)c2O)c1` the melting point was 240 °C. `O=C1Nc2ccccc2C1=c1[nH]c(=O)c(=Cc2ccc(OCc3ccccc3)cn2)[nH]c1=O` showed a melting point greater than 300 °C. For `Nc1nc(Cl)nc(NC2CC2)n1`, the melting point was 188 to 189 °C. Work on `COc1cc2c(CCNC(C)=O)cn(C(C)=O)c2cc1Cl` yielded a melting point of 178 to 181 °C. `CCCCP(=O)(C(=O)c1c(C)cc(C)cc1C)C(=O)c1c(OC)cccc1OC` (configuration not stated) showed a melting point of 94 to 96 °C. In the case of `Cc1ccc(-c2ccc(/C=C/C(=O)Nc3ccc(CN(C)C4CCOCC4)cc3)s2)cc1`, the melting point is reported as 199 to 201 °C. With `CS(=O)(=O)c1ccc(-c2cc([N+](=O)[O-])sc2-c2ccc(F)cc2)cc1` the melting point was 155 to 156 °C. With `N#CCN1C(=O)N(c2ccc(C#N)c(C(F)(F)F)c2)C(=O)C1(CF)CF` the melting point was 125 °C. With `Cn1cnc(S(=O)(=O)Nc2ccc(C(c3c(O)c4c(oc3=O)CCCCCC4)C3CC3)cc2)c1` (configuration not stated) the melting point was 238 to 242 °C. Molecule `Cc1ccc(-c2ccc(C(=O)Nc3ccc4cc(CN5CCCC5)ccc4c3)cn2)cc1` has a melting point of 260 to 262 °C. In the case of `CN(C)C(=O)C(C)(C)n1cc(Cl)c(-c2ccccc2Cl)n1`, the melting point is reported as 161 to 163 °C. Molecule `CC(C)[C@H](NCc1ccc(I)cc1)C(=O)O` has a melting point of 256 to 258 °C. Work on `Nc1ccccc1Nc1ccccn1` yielded a melting point of 124 to 125 °C. In the case of `CC(=O)N[C@H]1CC[C@H](CCN2CCN(c3nccc4c3OCC4)CC2)CC1`, the melting point is reported as 195 °C. Work on `CCO[C@@H]1c2ccc3c(nc(C)n3C)c2O[C@H](c2ccccc2)[C@H]1OC(=O)C(C)(C)C` yielded a melting point of 164 °C. Molecule `CCCCCCCCC(=O)Oc1ccc(-c2ccc(C#N)cc2)cc1` has a melting point of 43.2 to 43.6 °C. `CCCc1nc(SCCCCC(=O)O)c(C(=O)O)n1Cc1cc2c(cc1Cl)OCO2` showed a melting point of 156 °C. For `CC(=O)CSc1ncc(C)n1C`, the melting point was 65 to 67 °C. `CC(=O)N1c2ccc(-c3ccc(CN4CCCCC4)cc3)cc2C(Nc2ccc(F)cc2)CC1C` (configuration not stated) showed a melting point of 106 °C. `CCCn1c(=O)c2ccc(NC(=O)CC3CCCC3)cc2n1Cc1ccc(C(=O)O)cc1OC` gave a melting point of 122 to 125 °C. Work on `O=C(Cc1ccccc1)c1c(O)c2cccnc2n(-c2ccccc2)c1=O` yielded a melting point of 169 to 170 °C. Work on `CCCCC1(c2cccc(O)c2)CCCCN(C)C1=O` (configuration not stated) yielded a melting point of 138 to 142 °C. With `O=C(CS(=O)Cc1ccc(Cl)c(Cl)c1)NO` (configuration not stated) the melting point was 191 to 192 °C. With `CNC(=O)Nc1cc(C(C)(C)C)c2c(c1)C(C)(C)CS2` the melting point was greater than 150 °C. `CCOC(=O)C(C)(C)OC(=O)c1cc(-n2c(=O)cc(C(F)(F)C(F)(F)F)[nH]c2=O)ccc1Cl` showed a melting point of 141 to 143 °C. In the case of `CC1(C)Oc2ccc(C#N)cc2[C@@H](N2CCCNC2=NC#N)[C@@H]1O` (relative stereo), the melting point is reported as 152 to 153 °C. Molecule `CC(C)(O)CN1c2cccnc2C(N)=CC1Cc1ccccc1` (configuration not stated) has a melting point of 211 to 213 °C. With `CCCC[C@H](NC(=O)[C@H](C)NC(=O)OCc1ccccc1)C(=O)CSCc1ccco1` the melting point was 85 to 87 °C. In the case of `Cc1cc(NSc2ccccc2[N+](=O)[O-])ccc1Oc1ncc(Cl)cn1`, the melting point is reported as 74 to 85 °C. `CCOc1ccc(CC2CCN(CCCCNC(=O)c3ccc(-c4ccc(C(F)(F)F)cc4)cc3)CC2)c(OCC)c1` gave a melting point of 136 to 137 °C. `O=S1(=O)NCN(C2CCCCC2)c2cc(Cl)c(Cl)cc21` gave a melting point of 207 to 209 °C. Work on `CC1(C)CCC(Cc2ccc(Cl)cc2)C1(O)Cn1ccnc1` (configuration not stated) yielded a melting point of 130 to 132 °C. `O=C1c2ccccc2C(=O)N1CCCCN1CCN(C(c2ccccc2)c2ccccc2)CC1` gave a melting point of 125 to 129 °C. Work on `Cc1c[nH]c2c1C(=O)CC(c1ccccc1F)C2` (configuration not stated) yielded a melting point of 198 to 200 °C. With `N#Cc1cc2c(cc1C(F)(F)F)[nH]c(=O)c(=O)n2OCc1ccccc1` the melting point was 265 °C. With `CCCc1n[nH]c2c(=O)[nH]c(-c3cc(S(=O)(=O)N4CCN(C)CC4)ccc3OCC)nc12` the melting point was 236 to 239 °C. Work on `O=C(Nc1ccc(-n2nc(C(F)(F)F)cc2C(F)(F)F)cc1F)c1ccc(F)cc1F` yielded a melting point of 66 to 67 °C. Molecule `O=C1Nc2ccccc2C12COc1ccc3nonc3c12` (configuration not stated) has a melting point greater than 220 °C. `CCc1cc(-c2ccc(-c3ccn(CC(=O)OC)n3)cc2)ccc1OC` gave a melting point of 116 to 120 °C. Molecule `CCCC(=O)Nc1c(C)c2c(c(Cc3ccc(C(C)C)cc3)c1C)OCC2` has a melting point of 168 to 169 °C. For `CCOC(=O)c1cc2cccc(NC(=O)c3cc(OCc4ccccc4F)cc(OCc4ccccc4F)c3)c2[nH]1`, the melting point was 157 to 158 °C. `O=C(C=Cc1ccc(Cl)c(Cl)c1)C1C(=O)CCC1=O` gave a melting point of 190 to 191 °C. Molecule `CN(C)Cc1ccc(NC(=O)C2=Cc3cc(-c4ccccc4)ccc3CC2)cc1` has a melting point of 182 to 184 °C. `CCS(=O)(=O)N[C@H](C(=O)NCc1ccc(OCC#Cc2ccc(Cl)cc2)c(OC)c1)C(C)C` gave a melting point of 162 to 163 °C. `Cc1cc(C)nc(N(C=S)c2ccccc2)n1` showed a melting point of 161 to 165 °C. With `COC(=O)c1cnc(S)n1Cc1cc(F)cc(F)c1` the melting point was 177 to 178 °C. Molecule `CN(C(=O)On1nc(Br)c(Br)c1Br)c1ccccc1` has a melting point of 115 to 119 °C. In the case of `NC(=O)c1ccc2c(c1-c1c(C(N)=O)ccc3c1OCO3)OCO2`, the melting point is reported as 249 to 250 °C. With `CCOC(=O)[C@@H](CCC(=O)N1c2ccccc2C[C@H]1C(=O)OCC)NC(=O)[C@@H](N)CCCCNSc1ncccc1[N+](=O)[O-]` the melting point was 95 to 102 °C. `CCC1c2c([nH]c(=O)c(O)cc2=O)CC(Cl)C1Cl` (configuration not stated) gave a melting point of 197 °C. Work on `Cc1c(NC(=O)CC(C)(C)C)c(C)c2c(c1-c1ccsc1)OCC2c1ccc(C(C)C)cc1` (configuration not stated) yielded a melting point of 172 to 174 °C. Work on `Nc1ccc(Cl)cc1C(=O)c1ccccc1OCc1ccccc1` yielded a melting point of 110 to 111 °C. Molecule `CC(C)(N)CNC(=O)CNC(=O)CNC(=O)Cc1ccccc1` has a melting point of 209 to 210 °C. Molecule `CCOC(=O)c1cn(C2CC2)c2c(Cl)c(F)ccc2c1=O` has a melting point of 149 to 153 °C. `CC(c1cc2cc(Cl)ccc2o1)N(O)C(N)=O` (configuration not stated) gave a melting point of 174 to 175 °C. With `COC(=O)c1c(Br)ccc2nn(C)c(C)c12` the melting point was 109 to 111 °C. With `Cc1cccc(OC(C)C)c1S(N)(=O)=O` the melting point was 78 °C. In the case of `O=C(c1cc(-c2ccccc2)ccn1)N(O)Cc1ccc(F)cc1`, the melting point is reported as 135 to 140 °C. Molecule `COc1cccc(NC(=O)C(N)=O)c1C(N)=O` has a melting point of 252 to 255 °C. For `CCOCn1c(C(F)(F)F)c(C#N)c2ccc(Cl)cc21`, the melting point was 83 to 86 °C. Molecule `c1ccc(OCCSCc2nnc(-c3ccc(OCCCN4CCCCCC4)cc3)o2)cc1` has a melting point of 50 °C. In the case of `CCOC(=O)c1nnc2ccc(NC(C)C)cc2c1O`, the melting point is reported as 170 to 171 °C. `CC(C)(C)OC(=O)N[C@@H]1C(=O)N(CCOCc2ccccc2)c2ccccc2-c2ccccc21` gave a melting point of 132 to 134 °C. Molecule `COc1cn(-c2cc3c(cc2F)OC(F)(F)C(F)(F)O3)nc(-c2ccnn2-c2ccccc2)c1=O` has a melting point of 192 to 194 °C. In the case of `COc1ccc(-c2cc(C)cn2-c2ccc(S(N)(=O)=O)cc2)cc1`, the melting point is reported as 163 to 166 °C. Work on `O=C1CCC(c2ccc(OC3CCN(C4CCC4)CC3)cc2F)=NN1` yielded a melting point greater than 300 °C.
